According to paper PMC6193938, “Characterization of a novel AICARFT inhibitor which potently elevates ZMP and has anti-tumor activity in murine models” (Scientific Reports, 2018):

What was measured:
[1] = test system: AMPK T172 phosphorylation in A9 tumors; experiment: Western analysis of tumors; format: in vivo, mouse; settings: 100 mg/kg x12 PO
CK1e = biological target: T1, CK1e (Homo sapiens, UniProt P49674); experiment: CEREP protein kinase assay; format: biochemical
T1 construct: purchased CEREP Panlabs (Eurofins)
T1 sequence (P49674 whole entry): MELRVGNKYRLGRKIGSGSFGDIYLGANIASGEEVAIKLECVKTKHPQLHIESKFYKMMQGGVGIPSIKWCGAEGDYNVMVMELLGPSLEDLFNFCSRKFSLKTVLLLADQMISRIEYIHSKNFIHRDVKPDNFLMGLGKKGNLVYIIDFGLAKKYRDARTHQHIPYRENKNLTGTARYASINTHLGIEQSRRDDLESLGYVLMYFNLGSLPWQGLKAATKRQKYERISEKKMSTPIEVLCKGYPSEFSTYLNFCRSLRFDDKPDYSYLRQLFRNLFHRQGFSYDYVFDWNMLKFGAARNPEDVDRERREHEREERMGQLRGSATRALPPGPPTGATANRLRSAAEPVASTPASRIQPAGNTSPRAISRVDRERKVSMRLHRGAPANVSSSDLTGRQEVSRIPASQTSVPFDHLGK

DDR2 = biological target: T2, DDR2 (Homo sapiens, UniProt Q16832); experiment: CEREP protein kinase assay; format: biochemical
T2 construct: purchased CEREP Panlabs (Eurofins)
T2 sequence (Q16832 22-855): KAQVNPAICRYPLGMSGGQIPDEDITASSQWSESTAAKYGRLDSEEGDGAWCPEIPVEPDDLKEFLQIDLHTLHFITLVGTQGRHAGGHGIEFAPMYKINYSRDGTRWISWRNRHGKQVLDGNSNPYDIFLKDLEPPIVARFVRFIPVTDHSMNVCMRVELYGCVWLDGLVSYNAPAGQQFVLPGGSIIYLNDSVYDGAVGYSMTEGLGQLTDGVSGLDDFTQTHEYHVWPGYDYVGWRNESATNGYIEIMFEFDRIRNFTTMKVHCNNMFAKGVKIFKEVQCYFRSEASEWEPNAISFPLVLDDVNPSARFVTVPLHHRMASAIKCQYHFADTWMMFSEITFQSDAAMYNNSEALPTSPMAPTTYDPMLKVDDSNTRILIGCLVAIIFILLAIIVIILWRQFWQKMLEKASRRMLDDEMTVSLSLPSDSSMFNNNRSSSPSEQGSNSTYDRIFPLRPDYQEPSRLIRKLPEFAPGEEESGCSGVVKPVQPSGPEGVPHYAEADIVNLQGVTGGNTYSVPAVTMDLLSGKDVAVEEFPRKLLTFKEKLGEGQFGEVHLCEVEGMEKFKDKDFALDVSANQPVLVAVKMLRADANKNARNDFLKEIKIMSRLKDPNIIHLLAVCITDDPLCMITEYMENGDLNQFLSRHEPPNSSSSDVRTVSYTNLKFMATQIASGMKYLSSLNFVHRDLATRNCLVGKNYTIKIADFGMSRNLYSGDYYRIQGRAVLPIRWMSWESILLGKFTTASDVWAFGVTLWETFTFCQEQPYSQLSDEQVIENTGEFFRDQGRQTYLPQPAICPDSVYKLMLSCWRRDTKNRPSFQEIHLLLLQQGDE

IKKb = biological target: T3, IKKb (Homo sapiens, UniProt O14920); experiment: CEREP protein kinase assay; format: biochemical
T3 construct: purchased CEREP Panlabs (Eurofins)
T3 sequence (O14920 1-756): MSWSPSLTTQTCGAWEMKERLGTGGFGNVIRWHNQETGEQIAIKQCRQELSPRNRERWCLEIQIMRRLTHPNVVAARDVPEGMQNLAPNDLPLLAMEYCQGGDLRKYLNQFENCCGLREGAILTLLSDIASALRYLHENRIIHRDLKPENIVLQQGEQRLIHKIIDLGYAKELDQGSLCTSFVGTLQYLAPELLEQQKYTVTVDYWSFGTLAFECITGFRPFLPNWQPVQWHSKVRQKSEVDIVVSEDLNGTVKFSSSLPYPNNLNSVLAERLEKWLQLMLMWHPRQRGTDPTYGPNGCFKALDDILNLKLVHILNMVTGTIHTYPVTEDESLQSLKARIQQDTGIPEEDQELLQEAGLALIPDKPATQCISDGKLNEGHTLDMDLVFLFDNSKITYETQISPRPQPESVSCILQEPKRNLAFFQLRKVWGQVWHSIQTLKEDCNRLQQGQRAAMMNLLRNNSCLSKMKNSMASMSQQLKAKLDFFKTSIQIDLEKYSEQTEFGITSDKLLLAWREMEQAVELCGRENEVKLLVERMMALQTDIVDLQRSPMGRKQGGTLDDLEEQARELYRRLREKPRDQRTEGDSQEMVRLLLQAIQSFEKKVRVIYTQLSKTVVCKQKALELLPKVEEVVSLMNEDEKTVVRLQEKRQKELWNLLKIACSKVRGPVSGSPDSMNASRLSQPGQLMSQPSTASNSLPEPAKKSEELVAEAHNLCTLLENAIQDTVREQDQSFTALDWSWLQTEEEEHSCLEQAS

KIT = biological target: T4, KIT (Homo sapiens, UniProt P10721); experiment: CEREP protein kinase assay; format: biochemical
T4 construct: purchased CEREP Panlabs (Eurofins)
T4 sequence (P10721 26-976): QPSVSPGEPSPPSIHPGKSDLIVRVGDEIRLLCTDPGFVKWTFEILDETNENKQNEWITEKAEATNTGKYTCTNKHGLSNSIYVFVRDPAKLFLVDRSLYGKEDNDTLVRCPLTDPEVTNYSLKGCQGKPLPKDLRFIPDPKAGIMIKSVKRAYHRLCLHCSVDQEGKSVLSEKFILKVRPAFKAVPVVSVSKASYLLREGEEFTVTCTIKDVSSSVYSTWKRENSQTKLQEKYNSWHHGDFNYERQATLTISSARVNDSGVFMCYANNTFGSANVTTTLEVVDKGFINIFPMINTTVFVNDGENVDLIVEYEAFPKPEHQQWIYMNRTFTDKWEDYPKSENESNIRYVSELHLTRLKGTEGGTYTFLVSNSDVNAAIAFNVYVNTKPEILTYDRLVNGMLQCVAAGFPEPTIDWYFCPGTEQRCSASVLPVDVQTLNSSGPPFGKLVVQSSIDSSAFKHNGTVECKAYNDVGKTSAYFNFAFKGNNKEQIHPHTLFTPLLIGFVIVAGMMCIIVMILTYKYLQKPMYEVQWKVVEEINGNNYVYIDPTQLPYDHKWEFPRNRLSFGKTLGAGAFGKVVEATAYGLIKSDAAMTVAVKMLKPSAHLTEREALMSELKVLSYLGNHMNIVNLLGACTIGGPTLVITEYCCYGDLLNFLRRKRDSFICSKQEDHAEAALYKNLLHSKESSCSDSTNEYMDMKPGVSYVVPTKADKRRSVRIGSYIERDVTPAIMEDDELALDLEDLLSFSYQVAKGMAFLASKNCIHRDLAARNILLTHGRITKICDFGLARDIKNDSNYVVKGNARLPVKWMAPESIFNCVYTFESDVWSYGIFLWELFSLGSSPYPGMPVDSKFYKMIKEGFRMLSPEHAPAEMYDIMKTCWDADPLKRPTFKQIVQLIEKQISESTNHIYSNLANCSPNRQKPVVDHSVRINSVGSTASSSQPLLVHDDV

LCK = biological target: T5, LCK (Homo sapiens, UniProt P06239); experiment: CEREP protein kinase assay; format: biochemical
T5 construct: purchased CEREP Panlabs (Eurofins)
T5 sequence (P06239 whole entry): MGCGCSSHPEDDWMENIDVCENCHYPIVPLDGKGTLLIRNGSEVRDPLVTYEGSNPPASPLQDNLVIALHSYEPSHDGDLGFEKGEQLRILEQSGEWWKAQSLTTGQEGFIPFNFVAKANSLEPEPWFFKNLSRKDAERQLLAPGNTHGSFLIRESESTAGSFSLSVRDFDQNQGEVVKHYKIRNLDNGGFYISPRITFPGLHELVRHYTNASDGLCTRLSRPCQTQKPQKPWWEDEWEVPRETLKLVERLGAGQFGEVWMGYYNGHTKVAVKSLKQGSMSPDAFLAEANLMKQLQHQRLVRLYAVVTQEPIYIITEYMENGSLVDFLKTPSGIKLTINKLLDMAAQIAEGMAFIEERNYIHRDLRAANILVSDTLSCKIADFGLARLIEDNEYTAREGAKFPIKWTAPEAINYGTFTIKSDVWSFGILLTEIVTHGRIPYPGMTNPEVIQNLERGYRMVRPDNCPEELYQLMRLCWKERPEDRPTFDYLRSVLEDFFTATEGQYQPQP

ROCK1 = biological target: T6, ROCK1 (Homo sapiens, UniProt Q13464); experiment: CEREP protein kinase assay; format: biochemical
T6 construct: purchased CEREP Panlabs (Eurofins)
T6 sequence (Q13464 whole entry): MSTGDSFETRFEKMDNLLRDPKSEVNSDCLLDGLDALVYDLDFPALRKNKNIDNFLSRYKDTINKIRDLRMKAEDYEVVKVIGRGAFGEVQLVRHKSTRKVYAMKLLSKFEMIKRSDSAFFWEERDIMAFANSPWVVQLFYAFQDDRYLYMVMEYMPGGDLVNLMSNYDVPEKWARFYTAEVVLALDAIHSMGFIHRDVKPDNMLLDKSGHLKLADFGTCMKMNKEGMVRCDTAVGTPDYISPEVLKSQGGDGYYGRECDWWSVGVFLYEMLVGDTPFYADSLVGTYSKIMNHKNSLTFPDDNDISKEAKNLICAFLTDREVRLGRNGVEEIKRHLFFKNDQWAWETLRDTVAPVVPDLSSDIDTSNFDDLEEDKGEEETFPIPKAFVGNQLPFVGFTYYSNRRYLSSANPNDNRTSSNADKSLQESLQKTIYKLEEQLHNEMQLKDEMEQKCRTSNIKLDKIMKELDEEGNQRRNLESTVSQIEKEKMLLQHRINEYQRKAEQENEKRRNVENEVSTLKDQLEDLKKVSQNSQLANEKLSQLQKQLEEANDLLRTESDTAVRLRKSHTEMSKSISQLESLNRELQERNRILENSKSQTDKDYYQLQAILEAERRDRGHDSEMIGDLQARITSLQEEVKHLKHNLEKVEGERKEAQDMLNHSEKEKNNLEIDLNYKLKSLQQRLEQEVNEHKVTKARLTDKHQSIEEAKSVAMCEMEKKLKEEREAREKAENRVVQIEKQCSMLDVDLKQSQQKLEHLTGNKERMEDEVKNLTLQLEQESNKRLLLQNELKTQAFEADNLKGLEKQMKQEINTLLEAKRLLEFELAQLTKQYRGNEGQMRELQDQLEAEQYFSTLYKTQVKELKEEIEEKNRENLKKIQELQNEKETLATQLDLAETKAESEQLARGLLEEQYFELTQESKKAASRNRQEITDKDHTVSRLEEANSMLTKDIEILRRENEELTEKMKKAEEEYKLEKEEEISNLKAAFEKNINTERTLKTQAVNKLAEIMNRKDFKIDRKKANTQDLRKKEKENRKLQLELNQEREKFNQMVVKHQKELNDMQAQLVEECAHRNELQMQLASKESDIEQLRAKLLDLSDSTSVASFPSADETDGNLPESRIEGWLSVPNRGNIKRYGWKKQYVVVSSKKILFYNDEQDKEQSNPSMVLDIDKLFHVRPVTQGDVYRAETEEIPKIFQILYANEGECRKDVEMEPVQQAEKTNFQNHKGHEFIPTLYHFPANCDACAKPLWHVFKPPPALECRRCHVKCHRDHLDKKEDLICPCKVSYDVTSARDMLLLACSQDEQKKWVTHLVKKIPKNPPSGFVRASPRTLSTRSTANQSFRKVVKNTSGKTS

RSK3 = biological target: T7, RSK3 (Homo sapiens, UniProt Q15349); experiment: CEREP protein kinase assay; format: biochemical
T7 construct: purchased CEREP Panlabs (Eurofins)
T7 sequence (Q15349 whole entry): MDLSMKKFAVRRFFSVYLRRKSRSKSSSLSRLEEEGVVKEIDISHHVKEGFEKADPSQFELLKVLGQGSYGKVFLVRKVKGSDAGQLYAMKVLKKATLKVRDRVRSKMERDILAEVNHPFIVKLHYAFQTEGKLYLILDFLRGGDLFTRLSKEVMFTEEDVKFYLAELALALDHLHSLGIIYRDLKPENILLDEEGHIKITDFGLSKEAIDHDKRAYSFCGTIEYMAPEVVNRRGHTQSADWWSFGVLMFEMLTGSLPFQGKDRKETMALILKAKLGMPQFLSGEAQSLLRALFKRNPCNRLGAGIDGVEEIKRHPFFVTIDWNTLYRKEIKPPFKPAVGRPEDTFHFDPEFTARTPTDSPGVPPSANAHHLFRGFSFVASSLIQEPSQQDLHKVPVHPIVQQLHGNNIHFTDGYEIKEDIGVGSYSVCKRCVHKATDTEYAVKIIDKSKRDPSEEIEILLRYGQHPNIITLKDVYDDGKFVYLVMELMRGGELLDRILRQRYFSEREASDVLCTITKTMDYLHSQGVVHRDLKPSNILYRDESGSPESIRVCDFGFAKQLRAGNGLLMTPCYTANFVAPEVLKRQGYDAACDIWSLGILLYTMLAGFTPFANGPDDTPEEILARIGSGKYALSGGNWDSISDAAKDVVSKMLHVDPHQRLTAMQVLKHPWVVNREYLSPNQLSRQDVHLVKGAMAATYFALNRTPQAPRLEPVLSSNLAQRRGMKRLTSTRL

TRKB = biological target: T8, TRKB (Homo sapiens, UniProt Q16620); experiment: CEREP protein kinase assay; format: biochemical
T8 construct: purchased CEREP Panlabs (Eurofins)
T8 sequence (Q16620 32-822): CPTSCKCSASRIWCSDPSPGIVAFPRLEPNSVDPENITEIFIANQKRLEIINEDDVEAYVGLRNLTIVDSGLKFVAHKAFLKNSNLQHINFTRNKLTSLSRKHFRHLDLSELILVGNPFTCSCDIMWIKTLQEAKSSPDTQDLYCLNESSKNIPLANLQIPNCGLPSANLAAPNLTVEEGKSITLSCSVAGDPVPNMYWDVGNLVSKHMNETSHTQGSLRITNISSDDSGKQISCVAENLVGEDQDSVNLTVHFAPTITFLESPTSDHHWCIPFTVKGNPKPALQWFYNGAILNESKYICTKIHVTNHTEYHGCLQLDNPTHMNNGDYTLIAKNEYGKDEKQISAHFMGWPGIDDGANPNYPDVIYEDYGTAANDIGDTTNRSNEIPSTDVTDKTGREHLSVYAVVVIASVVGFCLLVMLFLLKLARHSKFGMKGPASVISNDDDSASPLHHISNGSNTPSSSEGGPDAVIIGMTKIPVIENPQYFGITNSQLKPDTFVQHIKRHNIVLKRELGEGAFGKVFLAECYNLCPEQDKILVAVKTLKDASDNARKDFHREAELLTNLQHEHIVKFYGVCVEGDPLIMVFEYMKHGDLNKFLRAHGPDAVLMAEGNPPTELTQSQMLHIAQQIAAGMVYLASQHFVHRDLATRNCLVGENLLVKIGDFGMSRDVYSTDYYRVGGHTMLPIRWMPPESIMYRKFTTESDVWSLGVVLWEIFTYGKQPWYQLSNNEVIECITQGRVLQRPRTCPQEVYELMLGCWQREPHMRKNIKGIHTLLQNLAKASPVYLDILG

`O=c1[nH]ccc2cc(F)c(NS(=O)(=O)c3ccc(N4CC[C@@H](O)C4)s3)cc12` [LSN3213128, N-(6-Fluoro-1-oxo-1,2-dihydroisoquinolin-7-yl)-5-[(3R)-3-hydroxypyrrolidin-1-yl]thiophene-2-sulfonamide] was tested, and the “AMPK T172 phosphorylation levels in vivo” value [1] was “showed no change”, the inhibition at 0.2 µM (CK1e; @ 0.2 uM) was -4.69% and the inhibition at 2 µM (CK1e; @ 2 uM) was -1.12%. For the same compound, the inhibition at 20 µM (CK1e; @ 20 uM) was 7.65%, the inhibition at 0.2 µM (DDR2; @ 0.2 uM) was -16.5% and the inhibition at 2 µM (DDR2; @ 2 uM) was -13.4%. It also gave an inhibition at 20 µM (DDR2; @ 20 uM) of -3.1%, an inhibition at 0.2 µM (IKKb; @ 0.2 uM) of -6.4% and an inhibition at 2 µM (IKKb; @ 2 uM) of 0.126%. For the same compound, the inhibition at 20 µM (IKKb; @ 20 uM) was 4.91%, the inhibition at 0.2 µM (KIT; @ 0.2 uM) was -6.65% and the inhibition at 2 µM (KIT; @ 2 uM) was 6.65%. For the same compound, the inhibition at 20 µM (KIT; @ 20 uM) was 42%, the inhibition at 0.2 µM (LCK; @ 0.2 uM) was -24.6% and the inhibition at 2 µM (LCK; @ 2 uM) was -4.9%. The inhibition at 20 µM (LCK; @ 20 uM) was 2.61%, the inhibition at 0.2 µM (ROCK1; @ 0.2 uM) was 7.67% and the inhibition at 2 µM (ROCK1; @ 2 uM) was 10.9%. It also gave an inhibition at 20 µM (ROCK1; @ 20 uM) of 21.3%, an inhibition at 0.2 µM (RSK3; @ 0.2 uM) of -5.85% and an inhibition at 2 µM (RSK3; @ 2 uM) of -1.32%. For the same compound, the inhibition at 20 µM (RSK3; @ 20 uM) was 9.07%, the inhibition at 0.2 µM (TRKB; @ 0.2 uM) was 2.14% and the inhibition at 2 µM (TRKB; @ 2 uM) was 3.76%. It also gave an inhibition at 20 µM (TRKB; @ 20 uM) of 20.3%.
